Assay: gradient 5% acetonitrile 3 min, to 50% in 2 min, to 85% in 15 min, held 3 min, 100 µL/min
Conditions: column: Zorbax Extend-C18 2.1 x 50 mm; eluents: water / acetonitrile, 0.1% formic acid
In short: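 Over 3 months, pure standards in mixtures of ~100 molecules were run by HPLC coupled to a quadrupole time-of-flight mass spectrometer in positive and negative ionization mode. The column was a Zorbax Extend-C18 (2.1 × 50 mm, 1.8 μm) at 100 μL/min, eluted with water and acetonitrile each holding 0.1% formic acid, with 40 μL dead and 900 μL dwell volumes. Retention time was determined from adduct peaks chosen by software and checked manually.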

Row | SMILES | RP-LC retention time [s]
1 | CCOc1ccc(S(=O)(=O)N2CCCC(C(=O)NC3CCCCCC3)C2)cc1 (stereo not drawn) | 1060
2 | COCCn1c(-c2cccc(OC)c2)cnc1NC(=O)Nc1cccc(Cl)c1 | 714
3 | CNC(=O)c1nn(-c2ccc(OC)c(OC)c2)c(OC)cc1=O | 590
4 | O=[N+]([O-])c1c(NCCO)cc(N2CCN(c3ccccn3)CC2)c2nonc12 | 579
5 | Cc1ccc(-c2ncccc2CNS(=O)(=O)c2cccc(C#N)c2)cc1 | 691
6 | CS(=O)(=O)N1CCCc2cc(C(=O)NCc3ccccn3)ccc21 | 607
7 | O=c1c2ccccc2n(Cc2nc(-c3cccc(C(F)(F)F)c3)no2)c(=O)n1CC1CCCO1 (stereo not drawn) | 1100
8 | COc1cccc(C(=O)N2CCC3(CC2)NC(=O)c2ccc(F)cc2N3C)c1 | 752
9 | O=C(NCCc1ccccc1)c1ccc2c(cnn2CC(=O)N2CCCCCC2)c1 | 791
10 | COc1ccc(N2CC(c3nnc(NC(=O)c4ccc(Br)cc4)o3)CC2=O)cc1 (stereo not drawn) | 759
11 | Cc1ccc(Cl)cc1NC(=O)C1CCN(S(=O)(=O)c2ccc3c(c2)NC(=O)C(C)O3)CC1 (stereo not drawn) | 834
12 | O=C(NCCn1nc(-c2ccco2)ccc1=O)c1n[nH]c2ccccc12 | 643
13 | O=C(c1ccncn1)N1C[C@@H](COCC2CC2)[C@H](c2ccccn2)C1 | 604
14 | O=C(CCCCCCNC(=O)c1cnc(N(c2ccccc2)c2ccccc2)nc1)NO | 771
15 | CCOC(=O)c1cnc(N2CCc3ccccc32)[nH]c1=O | 632
16 | Cc1ccc(-c2nnc(CC(=O)NC3CCCC3)o2)cc1 | 797
17 | COc1ccc(S(=O)(=O)N2CCc3nn(CC(C)C)c(=O)n3CC2)cc1OC | 745
18 | Cc1oc(-c2[nH]ncc2C(=O)N(C)C)cc1S(=O)(=O)Nc1cccc(Cl)c1C | 725
19 | COc1ccc2c(c1)[C@H]1OCCC[C@H]1C(c1cccc(O)c1)N2 (stereo partly drawn) | 793
20 | O=C1NCCCCCCN(C(=O)Nc2ccc3c(c2)OCCO3)[C@H]2CCC[C@@H]12 | 749
21 | CNC(=O)C1CCCN(c2nc3ncn(CC(=O)Nc4ccccc4)c(=O)c3s2)C1 (stereo not drawn) | 634
22 | CCc1noc(NC(C)=O)c1-c1ccc(OC)c(S(=O)(=O)Nc2c(C)cccc2C)c1 | 790

Row | SMILES | RP-LC retention time [s]
23 | CC(C)c1ccc(C(=O)NC(Cc2ccccc2)c2nnc(N3CCSCC3)o2)cc1 (stereo not drawn) | 996
24 | Cc1ccc(C)c(NC(=O)c2cn(-c3ncccc3-c3nc(C(C)C)no3)cn2)c1 | 1010
25 | CCN1C(=O)COc2ccc(-c3csc(NC(=O)c4ccncc4)n3)cc21 | 748
26 | Clc1ccc(CSc2nnc(-c3ccc(Br)cc3)o2)cc1 | 1270
27 | COc1ncc(-c2ccc3nccc(-c4ccnnc4)c3c2)cc1NS(=O)(=O)c1ccc(F)cc1F | 785
28 | O=C(NCCN1CCCCCC1)C1CCN(c2cnn(Cc3ccccc3)c(=O)c2)CC1 | 614
29 | C#CCSc1nc2sc(C)c(C)c2c(=O)n1C | 983
30 | Cc1cccc(CNC(=O)C2(C)Oc3cccnc3NC2=O)c1 (stereo not drawn) | 704
31 | O=S(=O)(NCC(O)C1CCCCC1)c1ccc(OC(F)(F)F)cc1 (stereo not drawn) | 949
32 | C=CCN1C(=O)COc2ccc(-c3nc(NC(=O)c4cc(OC)c(OC)c(OC)c4)sc3C)cc21 | 1050
33 | COc1cc(-c2nc(-c3ccc4c(c3)nnn4C)no2)cc(OC)c1OC | 937
34 | CCN1CCN(CCCNC(=O)C2CCCN(c3nnc(-n4cccc4)s3)C2)CC1 (stereo not drawn) | 572
35 | CC(=O)N1CC[C@]2(CO)CN(C(=O)c3ccoc3C)C[C@@H]2C1 | 583
36 | COCCn1cc2c3c(cccc31)CN(C(=O)Nc1cc(Cl)ccc1C)CC2 | 679
37 | CN(C)c1nccnc1OC1CCN(C(=O)c2ccccc2Br)C1 (stereo not drawn) | 752
38 | CCc1ccc(CNC(=O)CCc2nc(N3CCCC3)c3c(C)noc3n2)cc1 | 865
39 | CC1CCCCN1CCNS(=O)(=O)c1ccccc1-c1nc(-c2cccc(F)c2)no1 (stereo not drawn) | 746
40 | CCN1CCC(N(Cc2ccc3c(c2)OCO3)C(=O)Nc2ccc(F)cc2)CC1 | 656
41 | NC(=O)c1cc(=O)[nH]c2ccc(F)cc12 | 558
42 | O=c1ccc(N2CCCN(S(=O)(=O)c3ccc(F)cc3)CC2)nn1-c1ccccc1 | 846
43 | O=C(C1=CN(c2ccc(Cl)cc2)c2ccccc2S1(=O)=O)N1CCOCC1 | 791
44 | O=C(NCCSc1ncc(-c2ccccc2)[nH]1)NCc1cccs1 | 596

Row | SMILES | RP-LC retention time [s]
45 | O=C(NC1CCCC1)c1nnc(-c2ccc(S(=O)(=O)N3CCOCC3)cc2)o1 | 804
46 | Cc1cccc(-c2noc(Cc3nc(-c4ccc5c(c4)OCO5)cs3)n2)c1 | 1200
47 | CCCCN(C(=O)c1ccc(C)cc1)C1(C(=O)NCc2ccccc2)CCN(C(C)=O)CC1 | 901
48 | Cc1ccc(C)c(Cn2nc3ccc(S(=O)(=O)N4CCCC4)cn3c2=O)c1 | 915
49 | COc1ccc(-c2nnc(-c3ccccc3)o2)cc1S(=O)(=O)NC(C)(C)C | 955
50 | O=C1CC(c2ccc(O)cc2)Oc2cc(O)cc(O)c21 (stereo not drawn) | 784
51 | O=C(Cc1cccs1)N1CCC(c2nc(-c3ccccc3)no2)C1 (stereo not drawn) | 883
52 | CC(C)c1ccc2c(c1)-c1ccccc1S(=O)(=O)N2CC(=O)NCc1ccncc1 | 699
53 | O=C(Nc1cccc(Cl)c1)c1cn(-c2cc(N3CCCC3)ncn2)cn1 | 906
54 | CC(C)S(=O)(=O)c1cccc(C(=O)Nc2nc(-c3cc([N+](=O)[O-])cs3)cs2)c1 | 914
55 | NS(=O)(=O)c1ccc(NC(=O)c2ccc(S(=O)(=O)c3ccc(Cl)cc3)s2)cc1 | 877
56 | CCC(C)n1c(=O)c2ccccc2n(Cc2nc(-c3ccc(SC)cc3)no2)c1=O (stereo not drawn) | 1260
57 | Cc1ccc(-c2nnc(-c3cccc(S(=O)(=O)NCc4ccco4)c3)o2)cc1 | 968
58 | CCCCCC(=O)N1CCCC1 | 805
59 | Cc1ccc(NC(=O)Cn2nc3c(Oc4ccccc4C)nccn3c2=O)cc1F | 825
60 | COc1ccccc1NC(=O)N1CCCC1c1nc(-c2ccccc2C)no1 (stereo not drawn) | 1080
61 | COc1ccc(C(=O)N2[C@H]3CC[C@@H]2c2cnc(-c4ccc(F)cc4)nc2C3)cn1 | 892
62 | COc1ccc2c(c1)-c1nc(NC(=O)c3ccc(F)cc3)sc1CC2 | 1140
63 | Cc1cccc(OCC(=O)N2CCC3(C2)C(=O)N(C)c2ccccc23)c1 (stereo not drawn) | 825
64 | COc1ccc(S(=O)(=O)N2CCC(Cc3nncn3-c3ccccc3)CC2)cc1 | 775
65 | Cc1ccc(C)c(N2CCN(c3ccnc(SCC(=O)Nc4ccc(C(C)C)cc4)n3)CC2)c1 | 1060
66 | CCn1c(=O)n(CC)c2cc(N3CCCC3)c(NC(=O)NCc3ccc(OC)cc3)cc21 | 643

Row | SMILES | RP-LC retention time [s]
67 | CC(Cc1cccs1)NS(=O)(=O)c1ccc2c(c1)OCCO2 (stereo not drawn) | 840
68 | CCN1CCCn2cc(S(=O)(=O)N3CCN(c4ccccc4F)CC3)cc2C1=O | 829
69 | CCCCCn1c(=O)c2ccccc2n(Cc2nc(-c3ccc(OC)cc3)no2)c1=O | 1210
70 | CCNC(=O)c1nc(-c2ccc(C)cc2)n2c1CCCCC2 | 738
71 | COc1ccc(NC(=O)c2cc(NC(=O)C3CCC3)cc3nc(C)ccc23)cc1OC | 640
72 | Cc1ccc(N(C)C(=O)c2cc(C)n3nc(-c4ccccn4)cc3n2)cc1 | 763
73 | CCNC(=O)C1CCCN(c2nc3ncn(CC(=O)Nc4ccccc4F)c(=O)c3s2)C1 (stereo not drawn) | 647
74 | COc1ccc(CNC(=O)C(=O)NCC(c2ccc3c(c2)OCO3)N2CCOCC2)cc1 (stereo not drawn) | 643
75 | CCOc1ccccc1-c1noc(CN2C(=O)COc3ccc(S(=O)(=O)CC)cc32)n1 | 902
76 | O=C(Nc1ccc2c(c1)OCCO2)C1CCN(C(=O)c2ccc(-c3noc(C4CC4)n3)cc2)CC1 | 828
77 | COc1ccc(-c2ccnn2-c2ccc(SCC(=O)Nc3cc(C)ccc3C)nn2)cc1 | 1140
78 | O=C(Cn1nc2n(c1=O)CCCC2)NCc1ccccc1Cl | 669
79 | Cc1ccc2[nH]cc(CCNC(=O)CN3C(=O)CSc4cccn4-c4ccccc43)c2c1 | 954
80 | Cc1cc2nc(C)c(CCC(=O)O)c(C)n2n1 | 597
81 | CCC(C)NC(=O)c1cnn(-c2ccc(-c3nc(C(C)C)no3)cn2)c1C (stereo not drawn) | 1000
82 | Cc1ccsc1CN1CCC(Cn2c(C)cnc2C)CC1 | 521
83 | CCC(=O)Nc1cc2c(cc1N1CCC(C)CC1)n(C)c(=O)c(=O)n2C | 773
84 | COc1ccc(CNC(=O)c2cn(C)nc2S(=O)(=O)N2CCSCC2)c(OC)c1 | 855
85 | CCCn1cc(C(=O)NCC(=O)OCC)c(S(=O)(=O)N2CCN(c3ccccc3Cl)CC2)n1 | 1090
86 | O=C(Cn1c(=O)c2cccn2c2ccc(F)cc21)NCC1CCCO1 (stereo not drawn) | 703
87 | Cc1ccc(NC(=O)C2CC(=O)N(c3ccc4c(c3)CCN4C(=O)C3CC3)C2)c(C)c1 (stereo not drawn) | 805
88 | COCCc1nncn1C1CCN(S(=O)(=O)c2ccc(Cl)c(C)c2)CC1 | 769
